Experimental findings from ChEMBL document CHEMBL1201862, “PubChem BioAssay data set” (2004) are described below.

Activity calls are given as the source filed them. A value given as a limit tells only on which side of the number the result lay.

As a reminder, the AC50 is the concentration at which the activity in the assay is half-maximal.

The target of experiment [1] is T1, Polyadenylate-binding protein 1 (Homo sapiens, UniProt P11940). The experiment is described as follows: MLLE binding blockers, Cy5 peptide tracer – biochemical, fluorescence polarization, Cy5-PAM2 peptide, secondary, miRNA deadenylation inhibitor project, dose response (AID 602260). It counts as functional. The note with it: read-out: IC50_Mean.
T1 sequence (P11940 whole entry, the tested form may be a part): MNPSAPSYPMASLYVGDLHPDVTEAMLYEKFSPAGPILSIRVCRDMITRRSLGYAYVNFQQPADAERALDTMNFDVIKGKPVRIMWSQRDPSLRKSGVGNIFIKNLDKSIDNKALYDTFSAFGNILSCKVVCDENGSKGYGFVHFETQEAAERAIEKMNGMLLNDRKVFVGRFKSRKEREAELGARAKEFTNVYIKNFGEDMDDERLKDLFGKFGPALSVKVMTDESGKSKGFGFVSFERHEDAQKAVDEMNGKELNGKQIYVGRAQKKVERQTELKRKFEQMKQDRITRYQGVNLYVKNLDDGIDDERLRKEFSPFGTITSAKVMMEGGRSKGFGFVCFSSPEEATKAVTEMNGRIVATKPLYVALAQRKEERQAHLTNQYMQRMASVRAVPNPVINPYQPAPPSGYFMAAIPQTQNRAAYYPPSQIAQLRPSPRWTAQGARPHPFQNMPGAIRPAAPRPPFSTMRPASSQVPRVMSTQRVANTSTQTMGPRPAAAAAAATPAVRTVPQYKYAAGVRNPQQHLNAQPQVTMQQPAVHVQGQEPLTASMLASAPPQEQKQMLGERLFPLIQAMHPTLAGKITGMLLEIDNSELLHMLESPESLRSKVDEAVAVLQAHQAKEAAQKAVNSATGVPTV
Experiment [2] has as its target T1, Polyadenylate-binding protein 1. The experiment is described as follows: MLLE domain peptide-binding blockers, IC50 – biochemical, fluorescence polarization, FITC-PAM2 peptide, dose response (AID 602259). It counts as functional. The note with it: read-out: IC50_Mean. Background: In fluorescence polarisation assays a small probe gives low polarisation when free and higher when bound to something large.

A short description of experiment [3]: off-target signal loss in HeLa-CEM21 co-culture – HeLa F-luc CTL cells, cherry-picked, counter-screen for HIV-1 Env fusion inhibitor project, dose response (AID 652040).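 Further: potency for signal decrease marking cytotoxic or nonspecific inhibition.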 The class given is functional, cell-based.
The nature of experiment [4]: HIV-1 AD8 envelope cell-cell fusion blockers – cherry-pick, dose response (AID 652062).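 Further: luciferase signal from cell-cell fusion driven by HIV-1 clade B AD8 Env; potency is for inhibitors of fusion seen as a drop in luminescence.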 It counts as functional, cell-based.
Experiment [5] is described as follows: blockers of HIV-1 ZM109 envelope-driven cell-cell fusion – HeLa effector, CEM target cells, luciferase, cherry-pick, dose response (AID 652058).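 Further: luciferase signal from HIV-1 Env mediated cell-cell fusion of effector and target cells.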 It counts as functional, cell-based.
A short description of experiment [6]: blockers of HIV-1 envelope-mediated cell-cell fusion – cherry-pick, dose response (AID 652057). It counts as functional, cell-based.
The target in experiment [7] is T2, Calpain-2 catalytic subunit (Sus scrofa, UniProt P43367).
T2 sequence (P43367 whole entry): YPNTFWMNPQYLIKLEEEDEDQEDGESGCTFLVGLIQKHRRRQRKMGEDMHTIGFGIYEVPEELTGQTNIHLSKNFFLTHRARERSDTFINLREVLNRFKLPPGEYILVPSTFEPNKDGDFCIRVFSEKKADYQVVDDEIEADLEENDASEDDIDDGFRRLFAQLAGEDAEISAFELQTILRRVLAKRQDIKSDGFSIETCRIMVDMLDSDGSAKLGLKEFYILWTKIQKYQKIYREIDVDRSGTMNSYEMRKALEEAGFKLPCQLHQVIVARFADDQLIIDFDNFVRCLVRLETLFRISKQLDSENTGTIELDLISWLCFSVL
As to the kind of experiment: m-calpain protease blockers, concentration series – biochemical, fluorogenic peptide substrate, dose response (AID 1420). The class given is functional.

Take `COc1ccc(NC(=O)CSc2nnc(CCC(=O)O)c(=O)n2N)cc1`: the IC50 in experiment [1] and in experiment [2] was > 66 µM (inactive) throughout.
For `CCC(C)NC(=O)[C@H]1N2C(=O)c3c(ccc(OC)c3OC)C2SC1(C)C` (some centres undefined), the IC50 in experiment [1] and in experiment [2] was > 66 µM (inactive) each time.
As for `Cc1nc2sccn2c1-c1csc(NCc2ccccc2)n1`, the AC50 in experiment [3] is 24 µM (active); in experiment [4], 10.7 µM (active); in experiment [5], 10.1 µM (active); in experiment [6], 15.4 µM (active).
With `CC1(C(=O)NCc2ccc(Cl)c(Cl)c2)Oc2ccccc2NC1=O` (centres undefined), the IC50 in experiment [7] is given as 5.76 µM (not active).
For the compound `CC1(C)CC2CC(C)(CN2S(=O)(=O)c2cccc(C(=O)OCC(=O)NC(N)=O)c2)C1` (centres undefined), the AC50 in experiment [3] was 6.33 µM (active); in experiment [4], 13.8 µM (active); in experiment [5] it was 6.73 µM (active); in experiment [6], 6.32 µM (active).
With `COc1cc2c(cc1[N+](=O)[O-])n(C(C)C)c(=O)n2C(C)C`, the IC50 in experiment [7] was > 50 µM (not active).
As for `CC(C)(C)N1C(=O)[C@H]2[C@@H](c3ccc(Br)cc3)N3C(=O)N(c4ccccc4)C(=O)[C@@]3(C)[C@H]2C1=O`, the AC50 in experiment [3] is 1.18 µM (active); in experiment [4], 1.83 µM (active); in experiment [5], 1.08 µM (active); in experiment [6] it was 1.13 µM (active).
The matching figures for `Cc1cc(Cl)ccc1OCCCC(=O)Nc1cc(S(=O)(=O)N2CCOCC2)ccc1N1CCOCC1`: 4.73 µM (active), 7.34 µM (active), 5.3 µM (active) and 2.05 µM (active).
Turning to `CC(=O)c1cccc(S(=O)(=O)NC2CCSc3ccccc32)c1` (centres undefined), the IC50 in experiment [1] and in experiment [2] was > 66 µM (inactive) each time.
Regarding `O=C(c1cc([N+](=O)[O-])ccc1N1CCOCC1)N1CCCCC1`, the IC50 in experiment [7] is reported as > 50 µM (not active).
Regarding `CCC1(c2ccccc2)NC(=O)N(CC(=O)Nc2cc(S(=O)(=O)N3CCCCC3)ccc2OC(C)C)C1=O` (centres undefined), the AC50 in experiment [3] was 5.57 µM (active); in experiment [4] it was 14.7 µM (active); in experiment [5], 3.02 µM (active); in experiment [6], 1.8 µM (active).
With `O=C(NC(=S)NC1CCSC1=O)c1ccc([N+](=O)[O-])cc1` (centres undefined), the IC50 in experiment [1] and in experiment [2] was > 66 µM (inactive) each time.
Turning to `CCN(CC(=O)Nc1ccc(OC)cc1)C(=O)CSCc1c(C)noc1C`, the IC50 in experiment [1] and in experiment [2] was > 66 µM (inactive) each time.
In the case of `O=C(NCc1cccnc1)c1cnc2cc3c(cc2c1O)OCCO3`, the AC50 in experiment [3] is < 0.26 µM (active); in experiment [4], 1.22 µM (active).
In the case of `CCOc1ncccc1C(=O)Nc1nnc(C)s1`, the IC50 in experiment [7] is on record as > 50 µM (not active).
Consider `COc1ccccc1NC(=O)C12CC3CC(C1)CC(c1ccc(C)cc1)(C3)C2`, for which, in experiment [7], the IC50 is reported as 3.42 µM (not active).
In the case of `Oc1nc(S)nc2c1CN(Cc1ccc(F)cc1)CC2`, the IC50 in experiment [1] and in experiment [2] was > 66 µM (inactive) throughout.
On to `Cc1cccc(NC(=O)NC(=S)NC(=O)c2ccccc2)c1`, for which the IC50 in experiment [1] and in experiment [2] was > 66 µM (inactive) each time.
Take `O=c1[nH]nc(Sc2ccccc2)c(=S)[nH]1`: the IC50 in experiment [1] and in experiment [2] was > 66 µM (inactive) in each case.
On to `Cn1nc(C(F)(F)F)c2cc(NC(=O)OCc3ccc(F)cc3)sc21`, for which the IC50 in experiment [7] was 6.72 µM (active).
